In patent US20230365563A1, “QUINAZOLINE COMPOUND AND APPLICATION THEREOF” (SHANGHAI PHARMACEUTICALS HOLDING CO., LTD., priority 2020, published 2023):
pIC50: −log10 of the molar value. Counter-ions that a name gives are not always drawn.

How the values were obtained:
KRAS-G12D and SOS1 = target: T1, KRAS-G12D and SOS1 (Homo sapiens, UniProt P01116, G12D); assay: Inhibition of KRAS-G12D/SOS1 binding (Cisbio binding kit, 665/615 ratio), Effect Embodiment A; settings: read-out: GTP-KRAS-G12D:SOS1 IC50
T1 construct: purchased
Method in brief: (§1)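 Compounds are tested over eleven threefold dilution steps in duplicate, with final DMSO at 1%.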

KRAS_G12D and cRAF = target: T2, KRAS_G12D and cRAF (Homo sapiens, UniProt P01116, G12D); assay: Inhibition of KRAS_G12D/cRAF binding (Cisbio binding kit, 665/615 ratio), Effect Embodiment B; settings: read-out: GTP-KRAS-G12D:CRAF IC50
T2 construct: purchased
Method in brief: as §1

KRAS_WT and SOS1 = target: T3, KRAS_WT and SOS1 (Homo sapiens, UniProt P01116); assay: Inhibition of KRAS_WT/SOS1 binding (Cisbio binding kit, 665/615 ratio), Effect Embodiment C; settings: read-out: GTP-KRAS-WT:SOS1 IC50
T3 construct: purchased
Method in brief: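 Compounds tested as 3-fold, 11-point dilutions in duplicate at 1% DMSO final against the KRAS_WT/SOS1 binding system. IC50 derived by nonlinear regression fit.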

T3 sequence (P01116 1-188 isoform P01116-2): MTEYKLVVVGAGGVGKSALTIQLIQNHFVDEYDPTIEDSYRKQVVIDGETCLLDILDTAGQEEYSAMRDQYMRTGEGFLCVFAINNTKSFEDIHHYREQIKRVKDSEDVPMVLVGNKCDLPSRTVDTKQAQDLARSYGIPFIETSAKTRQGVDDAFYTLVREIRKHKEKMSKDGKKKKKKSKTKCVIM
T1 sequence (P01116 1-188 isoform P01116-2 G12D): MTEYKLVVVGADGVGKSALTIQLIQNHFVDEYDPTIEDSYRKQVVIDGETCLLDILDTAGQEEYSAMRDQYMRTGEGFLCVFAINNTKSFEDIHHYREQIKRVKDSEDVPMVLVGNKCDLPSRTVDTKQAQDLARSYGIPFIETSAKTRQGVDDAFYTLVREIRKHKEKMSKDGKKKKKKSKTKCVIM
T2 sequence (P01116 1-188 isoform P01116-2 G12D): as above

SMILES	pIC50 (KRAS-G12D and SOS1)	pIC50 (KRAS_G12D and cRAF)	pIC50 (KRAS_WT and SOS1)
C#Cc1c(F)ccc2cccc(-c3c(F)cc4c(N5CC6CCC(C5)N6)nc(OC[C@@]56CCCN5C[C@H](F)C6)nc4c3F)c12 (single isomer, unassigned) [Compound 279a, (S or R)-4-((1R,5S)-3,8-diazacyclo[3.2.1]octyl-3-yl)-7-(8-ethynyl-7-fluoronaphthalen-1-yl)-6,8-difluoro-2-((2R,7aS)-2-fluorotetrahydro-1H-pyrrolidin-7a(5H)-yl)methoxy)quinazoline formate]	8.06	7.96	7.56
Oc1cc(-c2c(Cl)cc3c(N4CC5CCC(C4)N5)nc(OCCCN4C5COCC4C5)nc3c2F)c2ccccc2c1 (single isomer, unassigned) [Compound 200, 4-((7S or 7R)-2-(3-(3-oxa-6-azabicyclo[3.1.1]heptan-6-yl)propoxy)-4-((1R,5S)-3,8-diazabicyclo[3.2.1]octan-3-yl)-6-chloro-8-fluoroquinazolin-7-yl)naphthalen-2-ol diformate]	7.21	7.13	5.60
CN(C)CC1(COc2nc(N3CC4CCC(C3)N4)c3cc(Cl)c(-c4cc(O)cc5ccccc45)c(F)c3n2)CC1 (single isomer, unassigned) [Compound 186, 4-((R or S)-4-((1R,5S)-3,8-diazabicyclo[3.2.1]octan-3-yl)-6-chloro-2-((1-((dimethylamino)methyl)cyclopropyl)methoxy)-8-fluoroquinazolin-7-yl)naphthalen-2-ol diformate]	7.77	7.74	6.63
Oc1cc(-c2c(Cl)cc3c(N4CC5CCC(C4)N5)nc(OCCC4(N5CCCC5)CC4)nc3c2F)c2ccccc2c1 (single isomer, unassigned) [Compound 117, 4-((S or R)-4-((1R,5S)-3,8-diazabicyclo[3.2.1]octan-3-yl)-6-chloro-8-fluoro-2-(2-(1-(pyrrolidin-1-yl)cyclopropyl)ethoxy)quinazolin-7-yl)naphthalen-2-ol dihydrochloride]	7.23	6.87	5.67
CCc1cccc2cc(O)cc(-c3c(F)cc4c(N5CC6CCC(C5)N6)nc(OC[C@H](C)CN5C6CCC5CC(OC)C6)nc4c3F)c12 (single isomer, unassigned) [Compound 286a, (S or R)-4-(4-((1R,5S)-3,8-diazabicyclo[3.2.1]octan-3-yl)-6,8-difluoro-2-((R)-3-((1R,3S,5S)-3-methoxy-8-azabicyclo[3.2.1]octan-8-yl)-2-methylpropoxy)quinazolin-7-yl)-5-ethylnaphthalen-2-o1 dihydrochloride]	7.87	8.01	6.58
Oc1cc(Cl)c(C2CC2)c(-c2c(Cl)cc3c(N4CC5CCC(C4)N5)nc(OC[C@@]45CCCN4C[C@H](F)C5)nc3c2F)c1 (single isomer, unassigned) [Compound 198a, 3-((R or S)-4-((1R,5S)-3,8-diazabicyclo[3.2.1]octan-3-yl)-6-chloro-8-fluoro-2-((2R,7aS)-2-fluorotetrahydro-1H-pyrrolin-7a(5H)-yl)methoxy)quinazolin-7-yl)-5-chloro-4-cyclopropylphenol formate]	7.94	8.21	7.63
CN(C)C1CCC(Oc2nc(N3CC4CCC(C3)N4)c3cc(Cl)c(-c4cc(O)cc5ccccc45)c(F)c3n2)C1 (single isomer, unassigned) [Compound 70c, 4-((S or R)-4-((1R,5S)-3,8-diazabicyclo[3.2.1]octan-3-yl)-6-chloro-2-((1S,3S or 1R,3R)-3-(dimethylamino)cyclopentyl)oxy)-8-fluoroquinazolin-7-yl)naphthalen-2-ol dihydrochloride]	7.13	6.38	4.42
CCc1cccc2cc(O)cc(-c3c(F)cc4c(N5CC6CCC(C5)N6)nc(OCCCN5CCOC[C@H]5C)nc4c3F)c12 (single isomer, unassigned) [Compound 282a, (S or R)-4-(4-((1R,5S)-3,8-diazacyclo[3.2.1]octan-3-yl)-6,8-difluoro-2-(3-((R)-3-methylmorpholinyl)propoxy)quinazolin-7-yl)-5-ethylnaphthalen-2-ol dihydrochloride]	7.78	7.86	6.76
CN(C)C12CC(COc3nc(N4CC5CCC(C4)N5)c4cc(Cl)c(-c5cc(O)cc6ccccc56)c(F)c4n3)(C1)C2 (single isomer, unassigned) [Compound 127, 4-((S or R)-4-((1R,5S)-3,8-diazabicyclo[3.2.1]octan-3-yl)-6-chloro-2-((3-(dimethylamino)bicyclo[1.1.1]pentan-1-yl)methoxy)-8-fluoroquinazolin-7-yl)naphthalen-2-ol hydrochloride]	7.06	6.60	5.19
CCc1c(F)ccc2cccc(-c3c(F)cc4c(N5CC6CCC(C5)N6)nc(OC[C@@]56CCCN5C[C@H](F)C6)nc4c3F)c12 (single isomer, unassigned) [Compound 280a, 4-((1R,5S)-3,8-diazacyclo[3.2.1]octan-3-yl)-7-((S or R)-8-ethyl-7-fluoronaphthalen-1-yl)-6,8-difluoro-2-((2R,7aS)-2-fluorotetrahydro-1H-pyrrolidin-7a(5H)-yl)methoxy)quinazoline dihydrochloride]	7.77	7.85	6.63
CCc1cccc2cc(O)cc(-c3c(F)cc4c(N5CC6CCC(C5)N6)nc(OC[C@@]56CCCN5C[C@H](F)C6)nc4c3F)c12 (single isomer, unassigned) [Compound 285a, (S or R)-4-(4-((1R,5S)-3,8-diazacyclo[3.2.1]octan-3-yl)-6,8-difluoro-2-((2R,7aS)-2-fluorotetrahydro-1H-pyrrolidin-7a(5H-yl)methoxy)quinazolin-7-yl)-5-ethylnaphthalen-2-ol dihydrochloride]	7.78	8.04	7.73
C#Cc1c(F)ccc2cccc(-c3c(F)cc4c(N5CC6CCC(C5)N6)nc(OCCCN5C6CCC5COC6)nc4c3F)c12 (single isomer, unassigned) [Compound 272b, 8-(3-((R or S)-4-((1R,5S)-3,8-diazabicyclo[3.2.1]octan-3-yl)-7-(8-ethynyl-7-fluoronaphtthalen-1-yl)-6,8-difluoroquinazolin-2-yl)oxy)propyl)-3-oxa-8-azabicyclo[3.2.1]octane formate]	7.74	7.11	5.37
CN(C)C1CN(c2nc(N3CC4(CCNCC4)C3)c3cc(Cl)c(-c4cc(O)cc5ccccc45)c(F)c3n2)C1 (single isomer, unassigned) [Compound 10a, (R or S)-4-(6-chloro-2-(3-(dimethylamino)azetidin-1-yl)-8-fluoro-4-(2,7-diazaspiro[3.5]nonan-2-yl)quinazolin-7-yl)naphthalen-2-ol]	6.11	5.49	4.99
C=CCCOCCCN1CCC[C@H]1COc1nc(N2CC3CCC(C2)N3)c2cc(F)c(-c3cc(O)cc4ccc(F)c(CC)c34)c(F)c2n1 (single isomer, unassigned) [Compound 249, 4-((S or R)-4-((1R,5S)-3,8-diazacyclo[3.2.1]octan-3-yl)-2-((S)-1-(3-(but-3-en-1-oxy)propyl)pyrrolidin-2-yl)methoxy)-6,8-difluoroquinazolin-7-yl)-5-ethyl-6-fluoronaphthalen-2-ol dihydrochloride]	7.62	7.79	7.07
CCNCCCOc1nc(N2CC3CCC(C2)N3)c2cc(Cl)c(-c3cc(O)cc4ccccc34)c(F)c2n1 (single isomer, unassigned) [Compound 105, dihydrochloride]	7.65	6.73	5.52
Oc1cc(-c2c(Cl)cc3c(N4CC5CCC(C4)N5)nc(OCC(F)(F)CN4CCCC4)nc3c2F)c2ccccc2c1 (single isomer, unassigned) [Compound 107, 4-((S or R)-4-((1R,5S)-3,8-diazabicyclo[3.2.1]octan-3-yl)-6-chloro-2-(2,2-difluoro-3-(pyrrolidin-1-yl)propoxy)-8-fluoroquinazolin-7-yl)naphthalen-2-ol dihydrochloride]	7.33	6.80	5.46
CO[C@@H]1C[C@H]2CC[C@@H](C1)N2C[C@@H](C)COc1nc(N2CC3CCC(C2)N3)c2cc(Cl)c(-c3cc(O)cc4ccccc34)c(F)c2n1 (single isomer, unassigned) [Compound 224, 4-((S or R)-4-((1R,5S)-3,8-diazabicyclo[3.2.1]octan-3-yl)-6-chloro-8-fluoro-2-((R)-3-((1R,3S,5S)-3-methoxy-8-azabicyclo[3.2.1]octan-8-yl)-2-methylpropoxy)quinazolin-7-yl)naphthalen-2-ol diformate]	7.88	7.73	5.87
C[C@H]1COC[C@H](C)N1CCCOc1nc(N2CC3CCC(C2)N3)c2cc(Cl)c(-c3cc(O)cc4ccccc34)c(F)c2n1 (single isomer, unassigned) [Compound 180, 4-((R or S)-4-((1R,5S)-3,8-diazabicyclo[3.2.1]octan-3-yl)-6-chloro-2-(3-((3S,5S)-3,5-dimethylmorpholinyl)propoxy)-8-fluoroquinazolin-7-yl)naphthalen-2-ol diformate]	7.06	6.59	5.41
Oc1cc(-c2c(Cl)cc3c(N4CC5CCC(C4)N5)nc(N4CCNCC4)nc3c2F)c2ccccc2c1 (single isomer, unassigned) [Compound 57b, 4-((R or S)-4-((1R,5S)-3,8-diazabicyclo[3.2.1]octan-3-yl)-6-chloro-8-fluoro-2-(piperazin-1-yl)quinazolin-7-yl)naphthalen-2-ol]	6.38	5.10	4.35
